Measured values as given in the supplement of paper PMC10307832.

Legend:
Test in all cases: relative viability (nuclei count vs DMSO), 5 days (fraction); higher = more cells survive
[1] = compound: C1CNCCC1C2=CC(=NN2)C3=CC=NC=C3 + CS(=O)(=O)N1CCN(Cc2cc3nc(-c4cccc5[nH]ncc45)nc(N4CCOCC4)c3s2)CC1 [Pictilisib] (partner 1 µM)
In short: (§1)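 Cells from lung cancer lines were seeded into 1536-well plates and, one day later, dosed by pin tool. Treatments were either a single drug or a fixed dose of an anchor drug with five library-drug doses (not always all listed) in √10 steps. After 5 days, nuclei were stained in a one-step fixation (final 0.05% Triton X-100, 1% formaldehyde, 1 ug/ml Hoechst) and counted on 4× images, and relative viability is the treated-to-vehicle nuclei ratio, as the median of duplicate plates.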

[2] = compound: O[C@H]1CC[C@H](Nc2ncc3nc(Nc4c(F)cc(F)cc4F)n([C@H]4CCOC4)c3n2)CC1 [Tanzisertib] + C[C@]1(O)C[C@@H](c2nc(-c3ccc4ccc(-c5ccccc5)nc4c3)c3c(N)nccn32)C1 [Linsitinib] (partner 1 µM)
In short: as §1

[3] = compound: O[C@H]1CC[C@H](Nc2ncc3nc(Nc4c(F)cc(F)cc4F)n([C@H]4CCOC4)c3n2)CC1 [Tanzisertib] + CC1(C)CCC(c2ccc(Cl)cc2)=C(CN2CCN(c3ccc(C(=O)NS(=O)(=O)c4ccc(N[C@H](CCN5CCOCC5)CSc5ccccc5)c(S(=O)(=O)C(F)(F)F)c4)cc3)CC2)C1 [Navitoclax] (partner 0.5 µM)
In short: as §1

[4] = compound: C1CNCCC1C2=CC(=NN2)C3=CC=NC=C3 + CC(=O)c1c(C)c2cnc(Nc3ccc(N4CCNCC4)cn3)nc2n(C2CCCC2)c1=O [Palbociclib] (partner 0.5 µM)
In short: as §1

Cell Line	relative viability ([1]; first compound 0.08 µM)	relative viability ([1]; first compound 0.8 µM)	relative viability ([1]; first compound 2.53 µM)	relative viability ([1]; first compound 8 µM)	relative viability ([2]; first compound 0.08 µM)	relative viability ([2]; first compound 0.253 µM)	relative viability ([2]; first compound 0.8 µM)	relative viability ([2]; first compound 2.53 µM)	relative viability ([2]; first compound 8 µM)	relative viability ([3]; first compound 0.08 µM)	relative viability ([3]; first compound 0.253 µM)	relative viability ([3]; first compound 0.8 µM)	relative viability ([3]; first compound 2.53 µM)	relative viability ([3]; first compound 8 µM)	relative viability ([4]; first compound 0.08 µM)	relative viability ([4]; first compound 0.8 µM)	relative viability ([4]; first compound 2.53 µM)	relative viability ([4]; first compound 8 µM)
NCI-H1299	0.711	0.886	0.772	0.819	1.16	0.976	1.02	1.09	1.06	1.06	1.09	1.06	1.08	1.12				
NCI-H3122	0.59	0.549	0.694	0.587	1.03	1.05	1.09	0.898	1.03	1.03	1.02	1.04	1.07	0.972	0.152	0.185	0.181	0.178
NCI-H1395	0.837	0.535	0.677	0.785	1.32	0.956	1.08	1.04	1.05	1.05	1.27	1.43	1.1	1.01	0.652	0.587	0.644	0.613
NCI-H2009	0.81	0.859	0.872	0.859	1.22	1.17	1.17	1.26	1.21	1.22	1.27	1.19	1.27	1.22	0.123	0.148	0.189	0.238
NCI-H1651	0.637	0.711	0.601	0.664	0.956	0.837	1.05	1.05	0.854	1.07	0.915	1.18	1.11	0.854	0.456	0.493	0.521	0.525
HARA	0.419	0.421	0.437	0.402	0.842	0.572	0.901	0.892	0.987	1.13	1.18	1.13	1.14	1.22	0.284	0.282	0.281	0.28
NCI-H1944	0.377	0.341	0.334	0.341	1.25	1.18	1.12	1.12	0.878	1.11	1.04	1.04	1.05	1.03	0.267	0.326	0.353	0.359
NCI-H2347	0.661	0.672	0.651	0.494	1.08	0.973	1.08	1.09	1.3	0.793	0.809	0.888	0.87	0.837	0.385	0.453	0.44	0.431
Calu-6	0.843	1.02	0.971	0.904	1.09	0.862	0.957	1.02	0.928	0.872	0.835	0.9	0.848	0.994				
NCI-H1703	0.253	0.253	0.21	0.22	1.03	0.674	0.787	0.316	0.546	1.12	0.837	1.05	1.03	0.927				
NCI-H1650	0.353	0.701	0.632	0.63						1.19	1.22	1.17	1.16	1.12	0.365	0.315	0.379	0.343
NCI-H2342															0.486	0.545	0.587	0.556
ChaGo-K-1	0.51	0.978	0.431	0.681						1.01	1.08	1.1	0.79	0.683	0.928	0.939	0.943	0.923
NCI-H650	0.897	0.992	0.939	0.904	0.949	0.918	0.92	1.2	0.366						0.334	0.352	0.4	0.406
NCI-H661	0.516	0.422	0.522	0.445	0.657	0.495	0.619	0.477	0.599						0.416	0.394	0.394	0.417
SW 900															0.551		0.584	0.561
ABC-1	0.735	0.812	0.865	0.869	0.728	0.65	1.07	0.977	0.736						0.468	0.617	0.733	0.76
NCI-H1648															0.266	0.352		0.243
NCI-H596	0.407	0.425	0.392	0.407	1.19	0.956	1.11	1.12	1.02	0.978	0.91	0.972	0.888	0.96				
IA-LM	0.374	0.482	0.371	0.477	0.793	0.552	0.589	0.712	0.768	0.814	0.622	0.691	0.963	1.1				
A549	0.509	0.654	0.575	0.548	0.736	0.551	0.703	0.623	0.533	1.3	1.08	1.26	1.1	1.3				
LCLC-103H	0.499	0.61	0.617	0.64	0.928	0.994	0.917	1.06	1.11						0.45	0.407	0.485	0.481
NCI-H358	0.323	0.376	0.357	0.422	0.771	0.662	0.76	0.782	0.566						0.14	0.126	0.143	0.136
